target: T1, PI3Kα (Homo sapiens, UniProt P42336); experiment: In vitro PI3Kα enzymatic assay (ADP-Glo / Kinase-Glo, ATP 25 μM); type: biochemical; conditions: PI3Kα, compound 10 μM, ATP 25 μM; mean ± SD of three determinations
T1 construct: purchased Invitrogen
Description: To screen the inhibitory activity of the target compounds against PI3Kα, the Kinase-Glo™ assay with ATP at 25 μM was utilised with PIK-75 as positive control. We chose to explore the SARs at three positions on the Imidazo[1,2-a]pyridine core. To start with, a set of 8-position modifications were prepared while keeping the morpholinyl amide substituent on 2-position fixed, since it allowed quick structure − activity profiling via coupling reactions of bromide with aryl borates or boronic acids. […] We then turned our attention back to the phenyl substituents.
Briefly, the compound, PI3K enzyme (PI3Kα from Invitrogen), the PIP2 (Life Technologies) substrate, and ATP (25 μM, Sigma) were diluted in kinase buffer to the indicated concentrations. The assay plate was covered and incubated at room temperature for 1 h. Then, the Kinase-Glo reagent (Promega) was added to the PI3Kα plate to stop the reaction, mixed briefly with centrifuge, shaken slowly on the shaker and then equilibrate for 120 min. Finally, add Kinase detection reagent to each well, shake 1 min, equilibrate for 30 min before reading on a plate reader for luminescence. The data were collected on Envision and presented in Excel. IC50 values were calculated from the inhibition curves.

T1 sequence (P42336 whole entry): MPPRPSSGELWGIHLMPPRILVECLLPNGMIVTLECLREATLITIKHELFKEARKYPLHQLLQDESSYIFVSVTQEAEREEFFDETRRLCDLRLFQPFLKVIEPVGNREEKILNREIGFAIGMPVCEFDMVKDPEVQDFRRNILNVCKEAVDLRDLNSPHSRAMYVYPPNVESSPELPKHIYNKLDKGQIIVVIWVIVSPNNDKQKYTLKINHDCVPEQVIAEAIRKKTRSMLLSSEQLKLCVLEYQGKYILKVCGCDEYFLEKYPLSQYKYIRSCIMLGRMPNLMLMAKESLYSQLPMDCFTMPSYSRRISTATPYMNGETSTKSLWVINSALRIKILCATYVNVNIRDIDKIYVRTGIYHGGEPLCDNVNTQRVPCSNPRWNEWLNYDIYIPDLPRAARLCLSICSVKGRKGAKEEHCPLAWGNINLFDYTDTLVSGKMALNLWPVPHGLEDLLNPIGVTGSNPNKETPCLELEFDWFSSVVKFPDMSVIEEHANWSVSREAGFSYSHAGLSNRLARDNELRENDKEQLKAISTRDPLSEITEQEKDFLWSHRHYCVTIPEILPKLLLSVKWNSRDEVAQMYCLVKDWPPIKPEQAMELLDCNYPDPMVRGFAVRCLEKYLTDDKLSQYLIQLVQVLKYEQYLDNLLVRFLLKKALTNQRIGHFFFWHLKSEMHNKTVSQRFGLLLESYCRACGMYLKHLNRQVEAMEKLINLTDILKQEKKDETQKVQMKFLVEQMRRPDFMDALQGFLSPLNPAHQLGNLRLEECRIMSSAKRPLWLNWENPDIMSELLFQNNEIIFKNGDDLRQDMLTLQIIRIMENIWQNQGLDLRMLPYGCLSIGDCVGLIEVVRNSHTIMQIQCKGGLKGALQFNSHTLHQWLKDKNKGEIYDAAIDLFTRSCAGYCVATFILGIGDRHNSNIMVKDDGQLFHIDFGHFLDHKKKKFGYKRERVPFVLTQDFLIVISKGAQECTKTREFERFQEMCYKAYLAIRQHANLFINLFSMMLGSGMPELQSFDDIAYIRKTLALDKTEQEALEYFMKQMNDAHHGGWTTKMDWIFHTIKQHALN
T1 sequence (P27986 whole entry partner): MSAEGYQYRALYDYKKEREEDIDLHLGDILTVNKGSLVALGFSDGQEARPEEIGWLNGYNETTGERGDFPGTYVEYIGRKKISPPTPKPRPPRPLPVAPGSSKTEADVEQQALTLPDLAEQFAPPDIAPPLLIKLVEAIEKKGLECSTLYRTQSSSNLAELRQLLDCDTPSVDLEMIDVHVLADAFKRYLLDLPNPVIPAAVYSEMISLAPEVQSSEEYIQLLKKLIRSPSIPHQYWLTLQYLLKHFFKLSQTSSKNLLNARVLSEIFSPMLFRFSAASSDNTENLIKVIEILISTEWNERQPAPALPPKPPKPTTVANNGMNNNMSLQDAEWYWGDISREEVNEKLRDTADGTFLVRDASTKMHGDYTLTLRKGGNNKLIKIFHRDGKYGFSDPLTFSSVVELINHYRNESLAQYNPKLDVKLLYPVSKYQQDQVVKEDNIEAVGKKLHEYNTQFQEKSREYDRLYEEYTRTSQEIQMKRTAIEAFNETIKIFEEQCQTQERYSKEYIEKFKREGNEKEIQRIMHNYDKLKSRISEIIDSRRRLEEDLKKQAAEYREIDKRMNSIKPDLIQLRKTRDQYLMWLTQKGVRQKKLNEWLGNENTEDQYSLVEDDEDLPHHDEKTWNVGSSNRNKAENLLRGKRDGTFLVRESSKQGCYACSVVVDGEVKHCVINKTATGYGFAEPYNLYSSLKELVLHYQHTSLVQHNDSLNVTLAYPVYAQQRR

With “1-Cyclohexyl-3–(3-(6-methyl-2–(4-methylpiperidine-1-carbonyl)Imidazo[1,2-a]pyridin-8-yl)phenyl)urea [Compound 33]” as the compound, how does the “% Inhibition at 10 μM” value read?
Its value is 44.5 ± 1.2%.

“(6-Methyl-8–(3-(morpholinosulfonyl)phenyl)Imidazo[1,2-a]pyridin-2-yl)(pyrrolidin-1-yl)methanone [Compound 27]” was tested. Which “% Inhibition at 10 μM” value did it give?
Its value is 60.9 ± 6.0%.

For “N,N-Diethyl-3–(6-methyl-2-(morpholine-4-carbonyl)Imidazo[1,2-a]pyridin-8-yl)benzenesulfonamide [Compound 19]”, which “% Inhibition at 10 μM” value is on record?
The value was 58.5 ± 1.6%.

How did the “% Inhibition at 10 μM” value turn out when “N,N-Diethyl-3–(6-methyl-2–(4-methylpiperidine-1-carbonyl)Imidazo[1,2-a]pyridin-8-yl)benzenesulfonamide [Compound 32]” was run?
Its value is 50.6 ± 0.9%.

same assay, conditions: PI3Kα, compound 10 μM, ATP 25 μM; mean ± SD of three determinations; read-out: % Inhibition at 10 μM

`Cc1cc(-c2ccc(F)cc2)c2nc(C(=O)N3CCOCC3)cn2c1` [Compound 15, (8–(4-Fluorophenyl)-6-methylImidazo[1,2-a]pyridine-2-yl)(morpholino)methanone] was tested. Which inhibition at 10 µM did it give?
The inhibition at 10 µM was 31.9 ± 2.9%.

With `Cc1cc(-c2cccc(F)c2)c2nc(C(=O)N3CCOCC3)cn2c1` [Compound 16, (8–(3-Fluorophenyl)-6-methylImidazo[1,2-a]pyridin-2-yl)(morpholino)methanone] as the compound, how does the inhibition at 10 µM read?
Its inhibition at 10 µM is 38.2 ± 3.6%.

How did the inhibition at 10 µM turn out when `Cc1cc(-c2ccccc2F)c2nc(C(=O)N3CCOCC3)cn2c1` [Compound 17, (8–(2-Fluorophenyl)-6-methylImidazo[1,2-a]pyridin-2-yl)(morpholino)methanone] was run?
Its inhibition at 10 µM is 14.1 ± 2.7%.

Which inhibition at 10 µM does the source give for `Cc1cc(-c2ccc(NC(=O)c3cccc(F)c3)cc2)c2nc(C(=O)N3CCOCC3)cn2c1` [Compound 18, 3-Fluoro-N-(4–(6-methyl-2-(morpholine-4-carbonyl)Imidazo[1,2-a]pyridin-8-yl)phenyl)benzamide] here?
Its inhibition at 10 µM is 47.6 ± 3.9%.

`Cc1cc(-c2cccnc2)c2nc(C(=O)N3CCOCC3)cn2c1` [Compound 20, (6-Methyl-8-(pyridin-3-yl)Imidazo[1,2-a]pyridin-2-yl)(morpholino)methanone] was tested. Which inhibition at 10 µM did it give?
The inhibition at 10 µM was 30.2 ± 2.1%.

How did the inhibition at 10 µM turn out when `COc1ccc(-c2cc(C)cn3cc(C(=O)N4CCOCC4)nc23)cn1` [Compound 21, (8–(6-Methoxypyridin-3-yl)-6-methylImidazo[1,2-a]pyridin-2-yl)(morpholino)methanone] was run?
Its inhibition at 10 µM is 39.9 ± 3%.

`Cc1cc(-c2ccc(F)cc2)c2nc(C(=O)N3CCCC3)cn2c1` [Compound 22, (8–(4-Fluorophenyl)-6-methylImidazo[1,2-a]pyridin-2-yl)(pyrrolidin-1-yl)methanone] was tested. Which inhibition at 10 µM did it give?
Its inhibition at 10 µM is 33.3 ± 4.2%.

`Cc1cc(-c2cccc(F)c2)c2nc(C(=O)N3CCCC3)cn2c1` [Compound 23, (8–(3-Fluorophenyl)-6-methylImidazo[1,2-a]pyridin-2-yl)(pyrrolidin-1-yl)methanone] was tested. Which inhibition at 10 µM did it give?
The inhibition at 10 µM was 43.9 ± 1.8%.

For `Cc1cc(-c2cccnc2)c2nc(C(=O)N3CCCC3)cn2c1` [Compound 24, (6-Methyl-8-(pyridin-3-yl)Imidazo[1,2-a]pyridin-2-yl)(pyrrolidin-1-yl)methanone], which inhibition at 10 µM is on record?
The inhibition at 10 µM was 29.6 ± 2.1%.

How did the inhibition at 10 µM turn out when `COc1ccc(-c2cc(C)cn3cc(C(=O)N4CCCC4)nc23)cn1` [Compound 25, (8–(6-Methoxypyridin-3-yl)-6-methylImidazo[1,2-a]pyridin-2-yl)(pyrrolidin-1-yl)methanone] was run?
Its inhibition at 10 µM is 44.3 ± 1.5%.

With `Cc1cc(-c2ccc(NC(=O)c3cccc(F)c3)cc2)c2nc(C(=O)N3CCCC3)cn2c1` [Compound 26, 3-Fluoro-N-(4–(6-methyl-2-(pyrrolidine-1-carbonyl)Imidazo[1,2-a]pyridin-8-yl)phenyl)benzamide] as the compound, how does the inhibition at 10 µM read?
The inhibition at 10 µM was 57.9 ± 4.6%.

`CCN(CC)S(=O)(=O)c1cccc(-c2cc(C)cn3cc(C(=O)N4CCCC4)nc23)c1` [Compound 28, N,N-Diethyl-3–(6-methyl-2-(pyrrolidine-1-carbonyl)Imidazo[1,2-a]pyridin-8-yl)benzenesulfonamide] was tested. Which inhibition at 10 µM did it give?
Its inhibition at 10 µM is 66.1 ± 4.4%.

For `Cc1cc(-c2cccc(F)c2)c2nc(C(=O)N3CCC(C)CC3)cn2c1` [Compound 29, (8–(3-Fluorophenyl)-6-methylImidazo[1,2-a]pyridin-2-yl)(4-methylpiperidin-1-yl)methanone], which inhibition at 10 µM is on record?
The inhibition at 10 µM was 30.4 ± 3.1%.

For `Cc1cc(-c2ccncc2)c2nc(C(=O)N3CCC(C)CC3)cn2c1` [Compound 30, (6-Methyl-8-(pyridin-4-yl)Imidazo[1,2-a]pyridin-2-yl)(4-methylpiperidin-1-yl)methanone], which inhibition at 10 µM is on record?
The inhibition at 10 µM was 9.3 ± 1.7%.

`Cc1cc(-c2cccnc2)c2nc(C(=O)N3CCC(C)CC3)cn2c1` [Compound 31, (6-Methyl-8-(pyridin-3-yl)Imidazo[1,2-a]pyridin-2-yl)(4-methylpiperidin-1-yl)methanone] was tested. Which inhibition at 10 µM did it give?
The inhibition at 10 µM was 28.5 ± 1.6%.

For `COc1ncc(-c2cc(C)cn3cc(C(=O)N4CCCC4)nc23)cc1NS(=O)(=O)c1ccccc1` [Compound 34, N-(2-methoxy-5–(6-methyl-2-(pyrrolidine-1-carbonyl)Imidazo[1,2-a]pyridin-8-yl)pyridin-3-yl)benzenesulfonamide], which inhibition at 10 µM is on record?
Its inhibition at 10 µM is 49.8 ± 1.6%.

With `COc1ncc(-c2cc(C)cn3cc(C(=O)N4CCOCC4)nc23)cc1NS(=O)(=O)c1ccc(F)cc1F` [Compound 37, 2,4-Difluoro-N-(2-methoxy-5–(6-methyl-2-(morpholine-4-carbonyl)Imidazo[1,2-a]pyridin-8-yl)pyridin-3-yl)benzenesulfonamide] as the compound, how does the inhibition at 10 µM read?
The inhibition at 10 µM was 67.5 ± 0.3%.

With `COc1ncc(-c2cc(C)cn3cc(C(=O)NCCN4CCOCC4)nc23)cc1NS(=O)(=O)c1ccc(F)cc1F` [Compound 38, 8–(5-((2,4-Difluorophenyl)sulfonamido)-6-methoxypyridin-3-yl)-6-methyl-N-(2-morpholinoethyl)Imidazo[1,2-a]pyridine-2-carboxamide] as the compound, how does the inhibition at 10 µM read?
The inhibition at 10 µM was 81.6 ± 2.8%.

Which inhibition at 10 µM does the source give for `COc1ncc(-c2cc(C)cn3cc(C(=O)NCCCN4CCOCC4)nc23)cc1NS(=O)(=O)c1ccc(F)cc1F` [Compound 39, 8–(5-((2,4-Difluorophenyl)sulfonamido)-6-methoxypyridin-3-yl)-6-methyl-N-(3-morpholinopropyl)Imidazo[1,2-a]pyridine-2-carboxamide] here?
The inhibition at 10 µM was 70.2 ± 3.6%.

Which inhibition at 10 µM does the source give for `COc1ncc(-c2cc(C)cn3cc(C(=O)NCCCN4CCOCC4)nc23)cc1NS(=O)(=O)c1ccc(F)cc1` [Compound 41, 8–(5-((4-Fluorophenyl)sulfonamido)-6-methoxypyridin-3-yl)-6-methyl-N-(3-morpholinopropyl)Imidazo[1,2-a]pyridine-2-carboxamide] here?
The inhibition at 10 µM was 75.7 ± 2.9%.

Which inhibition at 10 µM does the source give for `COc1ncc(-c2cc(C)cn3cc(C(=O)N4CCOCC4)nc23)cc1NS(=O)(=O)c1ccc(F)cc1` [Compound 42, 4-Fluoro-N-(2-methoxy-5–(6-methyl-2-(morpholine-4-carbonyl)Imidazo[1,2-a]pyridin-8-yl)pyridin-3-yl)benzenesulfonamide] here?
The inhibition at 10 µM was 69.2 ± 6.4%.

With `COc1ncc(-c2cc(C)cn3cc(C(=O)N4CCC(C)CC4)nc23)cc1NS(=O)(=O)c1ccc(F)cc1` [Compound 43, 4-Fluoro-N-(2-methoxy-5–(6-methyl-2–(4-methylpiperidine-1-carbonyl)Imidazo[1,2-a]pyridin-8-yl)pyridin-3-yl)benzenesulfonamide] as the compound, how does the inhibition at 10 µM read?
The inhibition at 10 µM was 62.8 ± 4.6%.

How did the inhibition at 10 µM turn out when `COc1ncc(-c2cc(C)cn3cc(C(=O)N4CCN(C)CC4)nc23)cc1NS(=O)(=O)c1ccc(F)cc1` [Compound 44, 4-Fluoro-N-(2-methoxy-5–(6-methyl-2–(4-methylpiperazine-1-carbonyl)Imidazo[1,2-a]pyridin-8-yl)pyridin-3-yl)benzenesulfonamide] was run?
The inhibition at 10 µM was 53.4 ± 5.1%.

How did the inhibition at 10 µM turn out when `COc1ncc(-c2cc(Cl)cn3cc(C(=O)NCCCN4CCOCC4)nc23)cc1NS(=O)(=O)c1ccc(F)cc1F` [Compound 45, 6-Chloro-8–(5-((2,4-difluorophenyl)sulfonamido)-6-methoxypyridin-3-yl)-N-(3-morpholinopropyl)Imidazo[1,2-a]pyridine-2-carboxamide] was run?
Its inhibition at 10 µM is 59.8 ± 3.5%.

With `COc1ncc(-c2cccn3cc(C(=O)N4CCC(C)CC4)nc23)cc1NS(=O)(=O)c1ccc(F)cc1` [Compound 46, 4-Fluoro-N-(2-methoxy-5–(2-(4-methylpiperidine-1-carbonyl)Imidazo[1,2-a]pyridin-8-yl)pyridin-3-yl)benzenesulfonamide] as the compound, how does the inhibition at 10 µM read?
Its inhibition at 10 µM is 40.2 ± 3%.

same assay, conditions: read-out: % Inhibition at 10 μM, PI3Kα, compound 10 μM, ATP 25 μM; mean ± SD of three determinations

Which inhibition at 10 µM does the source give for `Cc1ccc([N+](=O)[O-])cc1S(=O)(=O)N(C)/N=C/c1cnc2ccc(Br)cn12` [PIK-75, reference compound] here?
Its inhibition at 10 µM is 98.2 ± 1.6%.

— PMC9858543, “Design, synthesis and evaluation of 2, 6, 8-substituted Imidazopyridine derivatives as potent PI3Kα inhibitors” (Journal of Enzyme Inhibition and Medicinal Chemistry, 2023)
